Counter-ions that a name gives are not always drawn. Like-named read-outs stand apart in the source and are kept apart here. One block for each compound: values may come before it.
How the values were obtained:
[1] = target: T1, β-lactoglobulin (β-Lg) (Bos taurus, UniProt P02754); assay: Fluorescence titration of β-Lg with ligands (Equation [1]; Kd and n); assay type: binding; conditions: for binding affinity, comparative (in words): compared with other ligands of Table 1 or the retinoids; for molecules bound per molecule of protein: per molecule of protein / β-Lg monomer
T1 construct: Isolation of β-Lg from Whey; from tissue; host or cells: whey (milk), purified by bioselective adsorption on N-retinyl-Celite
T1 sequence (P02754 17-178): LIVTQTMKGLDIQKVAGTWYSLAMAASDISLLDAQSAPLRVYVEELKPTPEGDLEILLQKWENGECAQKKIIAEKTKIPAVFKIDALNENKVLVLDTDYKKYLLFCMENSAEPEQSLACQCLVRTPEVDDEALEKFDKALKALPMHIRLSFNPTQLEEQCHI
Experimental: (§1) Fluorescence spectra were recorded at 23 ° C. with a System 3 Scanning Spectrofluorometer (Optical Technology Devices, Inc., Elmsford, N.Y.) using the ratio mode. Excitation and emission spectra were obtained with 1 μM solutions of β-Lg in 50 mM sodium phosphate, pH 7.0, both in the presence and absence of 2 μM concentrations of the various ligands. Titration of β-Lg with the various ligands was quantified by measuring the fluorescence quenching of the protein tryptophanyl residues (excitation at 287 nm, emission measured at 332 nm). The spectrofluorometer cuvette contained 2.5 ml of 1 μM β-Lg in the phosphate buffer to which 2.5-μl increments of the ligand solution in ethanol or ethyl ether were added with a micropipette. Dufour et al., (1990) FEBS Lett. 277, 223. […] Cogan et al., (1976) Eur. J. Biochem. 65, 71.
(§2) The titration can also be followed by measuring the increase in vitamin D or cholesterol fluorescence that was due to energy transfer from the tryptophanyl residue. Thus, with excitation at 287 nm, emission was measured at 412 nm for vitamin D or 390 nm for cholesterol.
The titration data can be used to evaluate the equilibrium dissociation constant and the number of binding sites per monomer as has been previously described. Cogan et al., (1976) Eur. J. Biochem. 65, 71; Dufour and Haertle, (1991) Biochim. Biophys. Acta 1079, 316; Wang et al., (1997) J. Dairy Sci. 80, 1047. The linear regression equation
(§3) PT a=(1/n)[RT a/(1-a)]-Kd /n
(§4) is used to calculate n, the number of binding sites per molecule of protein and Kd, the apparent dissociation constant. In this equation, PT is total protein concentration, and RT is total ligand concentration.
Cho et al., (1994) J. Biol. Chem. 269, 11102; Dufour and Haertle, (1991) Biochim. Biophys. Acta 1079, 316; Wang et al., (1997) J. Dairy Sci. 80, 1047. […] Cho et al., (1994) J. Biol. Chem. 269, 11102; Dufour and Haertle, (1991) Biochim. Biophys. Acta 1079, 316; Wang et al., (1997) J. Dairy Sci. 80, 1047.
(§5) Possible binding of vitamin D3 to β-Lg was also investigated by recording the fluorescence emission at 412 nm as a function of the excitation wavelength for vitamin solutions with and without added β-Lg (FIG. 4). […] In a titration experiment, the protein fluorescence at 332 nm with excitation at 287 nm was determined as a function of vitamin D3 concentration (FIG. 3). […] Also, the increase of vitamin D3 fluorescence at 412 nm with excitation at 287 nm for varying vitamin concentrations can be plotted according to Equation [1] as shown in FIG. 5B.
Dufour and Haertle, (1991) Biochim. Biophys. Acta 1079, 316; Wang et al., (1997) J. Dairy Sci. 80, 1047.
The potential binding of both cholesterol and 7-dehydrocholesterol to β-Lg was examined by fluorescence spectroscopy, essentially as described above for vitamin D (Example 3).
The titration data were used to calculate the equilibrium dissociation constant (Kd) and the number of binding sites per β-Lg monomer (n), as described in Example 3.

[2] = target: T1, β-lactoglobulin (β-Lg); assay: Fluorescence emission/excitation spectra of β-Lg with and without ligand; assay type: binding; conditions: for energy transfer between protein tryptophanyl residues and ligand: emission 390 nm; for ligand fluorescence at 412 nm with excitation around 287 nm in presence of β-Lg: 2 μM ligand, 1 μM β-Lg, pH 7.0, 23 °C
Experimental: as §1, §2
Binding of hydrophobic ligands in proximity to Trp19 results in energy transfer between this protein residue and the ligand, and thus changes in the fluorescence emission spectra can be used to follow complex formation. Fluorescence emission spectra of β-Lg with and without bound vitamin D2 that result from excitation of tryptophanyl residues at 287 nm are shown in FIG. 1.
as §5
The potential binding of both cholesterol and 7-dehydrocholesterol to β-Lg was examined by fluorescence spectroscopy, essentially as described above for vitamin D (Example 3). […] A plot of the data that were obtained with varying cholesterol concentrations according to Equation [1] from Example 3 was similar to that for vitamin D3, shown in FIG. 5.
Studies were undertaken to evaluate whether other fat-soluble vitamins bind to β-Lg. Fluorescence emission spectra of β-Lg in the presence and absence of vitamin E, vitamin K1, or vitamin K2 were obtained essentially as described in Example 3.

[3] = target: T1, β-lactoglobulin (β-Lg); conditions: cited from earlier work; for binding to β-Lg reported (in words): in vitro
[4] = target: T1, β-lactoglobulin (β-Lg); assay: Fluorescence titration of β-Lg with linoleic acid, conjugated linoleic acid and its methyl ester (Trp19 enhancement); assay type: binding; conditions: 10 μM β-Lg
Text: The titration data can be used to evaluate the equilibrium dissociation constant and the number of binding sites per monomer as has been previously described. […] Biophys. […] The linear regression equation
as §3, §4

[5] = 1 μM β-Lg, 50 mM phosphate pH 7.0, 23 °C, triplicate titrations (vitamin D2: five; ergosterol: single)
[6] = Kd, Table 2, β-Lg titration as in Example 3
[7] = 1 μM β-Lg, 50 mM phosphate pH 7.0, 23 °C, triplicate titrations (vitamin D2: five; ergosterol: single), read-out: Kd (apparent dissociation constant), Table 1
[8] = β-Lg titration as in Example 3, read-out: Kd, Table 2

SMILES: CC(C)CCC[C@@H](C)[C@H]1CC[C@H]2C3=CC=C4C[C@@H](O)CC[C@]4(C)[C@H]3CC[C@]12C [7-Dehydrocholesterol, 7-dehydrocholesterol]
- Kd [1]: 26.7 nM
- n (number of binding sites per molecule of protein), Table 1 [1, 5]: 1.65 mol/mol of protein
- energy transfer between protein tryptophanyl residues and ligand [2]: energy was transferred

SMILES: CC(C)CCC[C@@H](C)[C@H]1CC[C@H]2[C@@H]3CC=C4C[C@@H](O)CC[C@]4(C)[C@H]3CC[C@]12C [Cholesterol, cholesterol]
- Kd [1]: 34.9 nM
- n (number of binding sites per molecule of protein), Table 1 [1, 5]: 2.36 mol/mol of protein
- Kd [1, 6]: 34.9 nM
- n, Table 2 ([1]; β-Lg titration as in Example 3): 2.4 mol/mol β-LG
- energy transfer between protein tryptophanyl residues and ligand [2]: energy was transferred

- mol bound per mol of protein (Example 4) [1]: 2 mol~mol^-1
- n (number of binding sites per molecule of protein), Table 1 [1, 5]: 2.02 mol/mol of protein
- Kd [1, 7]: 6.25 nM
- binding affinity, comparative (in words) [1]: significantly greater
SMILES: CC(C)[C@@H](C)/C=C/[C@@H](C)[C@H]1CC[C@H]2C3=CC=C4C[C@@H](O)CC[C@]4(C)[C@H]3CC[C@]12C [Ergosterol, ergosterol]

SMILES: CCCCC/C=C\C/C=C\CCCCCCCC(=O)O [LA, linoleic acid]
- n, Table 3, from Frapin et al. ([3]; From Frapin et al., J. Protein Chem. 12, 443 (1993)): 0.83 mol/mol β-LG
- Kd ([3]; From Frapin et al., J. Protein Chem. 12, 443 (1993), read-out: Kd, Table 3, from Frapin et al.): 190 nM
- Kd ([4]; 27 °C, read-out: order of Kd (text, Example 7)): ~100 nM
- n, Table 3 ([4]; pH 7, 27 °C, enhancement at 332 nm, excitation 287 nm): 1.01 mol/mol β-LG
- Kd ([4]; pH 7, 27 °C, enhancement at 332 nm, excitation 287 nm, read-out: Kd, Table 3): 143 nM

SMILES: CCCCCCCCCCCCCCCC(=O)O [Palmitic acid]
- Kd [1, 6]: 490 nM
- n, Table 2 ([1]; β-Lg titration as in Example 3): 1.2 mol/mol β-LG

SMILES: CC1=C(/C=C/C(C)=C/C=C/C(C)=C/C(=O)O)C(C)(C)CCC1 [Retinoic acid, retinoic acid]
- Kd [1, 6]: 17 nM
- n, Table 2 ([1]; β-Lg titration as in Example 3): 0.9 mol/mol β-LG

- n, Table 2 ([1]; β-Lg titration as in Example 3): 1.2 mol/mol β-LG
SMILES: CCCCCCCCCCCCCCCC(=O)OC/C=C(C)/C=C/C=C(C)/C=C/C1=C(C)CCCC1(C)C [Retinyl palmitate (P), Retinyl palmitate]

- n, Table 2 ([1]; β-Lg titration as in Example 3): 0.8 mol/mol β-LG
SMILES: CCCCCCCCCCCCCCCC(=O)OC/C=C(C)/C=C/C=C(C)/C=C/C1=C(C)CCCC1(C)C [Retinyl palmitate (R), Retinyl palmitate]

SMILES: C=C1CC[C@H](O)C/C1=C/C=C1\CCC[C@]2(C)[C@@H]([C@H](C)/C=C/[C@H](C)C(C)C)CC[C@@H]12 [Vitamin D2, ergocalciferol]
- mol bound per mol of protein (Example 4) [1]: 2 mol~mol^-1
- n (number of binding sites per molecule of protein), Table 1 [1, 5]: 2.00 mol/mol of protein
- Kd [1, 7]: 4.91 nM
- ligand concentration at which fluorescence quenching appeared to reach a maximum ([1]; 1 μM β-Lg, emission 332 nm): ~2 µM
- binding affinity, comparative (in words) [1]: significantly greater
- affinity of β-Lg relative to that for vitamin A and other retinoids (greater by) ([1]; compared with vitamin A and other retinoids): about 10 fold
- n ([1]; quenching at 332 nm, excitation 287 nm, five titrations, 1 μM β-Lg): 2.00±0.16
- Kd ([1]; quenching at 332 nm, excitation 287 nm, five titrations, 1 μM β-Lg, read-out: Kd): 4.91 ± 3.28 nM
- n, Table 2 ([1]; β-Lg titration as in Example 3): 2.0 mol/mol β-LG
- Kd [1, 8]: 4.9 nM
- β-Lg fluorescence, 300 to 360 nm [2]: quenched
- ligand fluorescence at 412 nm with excitation around 287 nm in presence of β-Lg [2]: increased

SMILES: C=C1CC[C@H](OS(=O)(=O)O)C/C1=C/C=C1\CCC[C@]2(C)[C@@H]([C@H](C)CCCC(C)C)CC[C@@H]12 [Vitamin D3 sulfate, vitamin D3 sulfate]
- Kd [1]: 30.3 nM
- mol bound per mol of protein (Example 4) [1]: 2 mol~mol^-1
- n (number of binding sites per molecule of protein), Table 1 [1, 5]: 1.74 mol/mol of protein

SMILES: C=C1CC[C@H](O)C/C1=C/C=C1\CCC[C@]2(C)[C@@H]([C@H](C)CCCC(C)C)CC[C@@H]12 [Vitamin D3, cholecalciferol]
- Kd [1]: 36 nM
- n (number of binding sites per molecule of protein), Table 1 [1, 5]: 2.01 mol/mol of protein
- Kd [1, 6]: 36 nM
- molecules bound per molecule of protein [1]: 2 molecules
- n, Table 2 ([1]; β-Lg titration as in Example 3): 2.0 mol/mol β-LG
- ligand fluorescence at 412 nm with excitation around 287 nm in presence of β-Lg [2]: increased intensity

SMILES: Cc1c(C)c2c(c(C)c1O)CCC(C)(CCCC(C)CCCC(C)CCCC(C)C)O2 (stereo not drawn) [Vitamin E, α-tocopherol]
- n values, molecules bound per β-Lg monomer (Example 6) [1]: 1
- Kd ([1]; Kd values (Example 6)): 91 nM
- Kd [1, 6]: 91 nM
- Kd ([1]; order of magnitude of Kd (Example 6)): ~1 nM
- n, Table 2 ([1]; β-Lg titration as in Example 3): 1.0 mol/mol β-LG
- β-Lg fluorescence, 280 to 300 nm [2]: increase
- β-Lg fluorescence, 300 to 360 nm [2]: no change

- n values, molecules bound per β-Lg monomer (Example 6) [1]: 1.9
- molecules bound per molecule of protein [1]: ~2 molecules
- Kd ([1]; read-out: Kd values (Example 6)): 90 nM
- Kd ([1]; read-out: order of magnitude of Kd (Example 6)): ~1 nM
- n, Table 2 ([1]; β-Lg titration as in Example 3): 1.9 mol/mol β-LG
- Kd [1, 8]: 90 nM
- β-Lg fluorescence, 280 to 300 nm [2]: increase
- β-Lg fluorescence, 300 to 360 nm [2]: quenched
SMILES: CC1=C(C/C=C(\C)CCC[C@H](C)CCC[C@H](C)CCCC(C)C)C(=O)c2ccccc2C1=O [Vitamin K1, 2-methyl-3-phytyl-1,4-napthho-quinone]

SMILES: CC1=CC(=O)c2ccccc2C1=O [Vitamin K3, menadione]
- β-Lg fluorescence, 300 to 360 nm [2]: No quenching
- binding in the β-Lg calyx ([2]; inferred from absence of quenching): does not bind

SMILES: Cc1c2ccncc2c(C)c2c1[nH]c1ccccc12 [ellipticine]
- binding to β-Lg reported (in words) [3]: reported to bind

SMILES: C=CC1=C(C)c2cc3[nH]c(cc4nc(cc5[nH]c(cc1n2)c(C)c5CCC(=O)O)C(CCC(=O)O)=C4C)c(C)c3C=C [protoporphyrin IX]
- binding to β-Lg reported (in words) [3]: reported to bind
